SMILES strings stand for the structures.

The values that follow come from article PMC9805530 (European journal of medicinal chemistry, 2022).

One experiment concerns the target T1, Sirt5 (Homo sapiens, UniProt Q9NXA8).
T1 sequence (Q9NXA8 37-310): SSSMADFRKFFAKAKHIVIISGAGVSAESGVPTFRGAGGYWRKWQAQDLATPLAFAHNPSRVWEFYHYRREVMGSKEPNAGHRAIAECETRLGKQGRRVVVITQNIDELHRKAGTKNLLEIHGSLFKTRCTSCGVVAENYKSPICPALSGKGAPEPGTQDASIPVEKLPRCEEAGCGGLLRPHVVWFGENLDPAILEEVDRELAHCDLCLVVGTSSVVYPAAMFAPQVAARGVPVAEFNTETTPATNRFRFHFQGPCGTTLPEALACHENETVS
The experiment is described as follows: Fluorogenic Sirt5 Assay Kit. The experiment is classed as biochemical. Conditions: 100 μM compounds, 37 °C 30 min.

In experiment [1] the target is T2, Sirt6 (Homo sapiens, UniProt Q8N6T7). The experiment is classed as biochemical. The conditions noted are these: 100 μM, 30 °C, 60 minutes.
T2 sequence (Q8N6T7 whole entry): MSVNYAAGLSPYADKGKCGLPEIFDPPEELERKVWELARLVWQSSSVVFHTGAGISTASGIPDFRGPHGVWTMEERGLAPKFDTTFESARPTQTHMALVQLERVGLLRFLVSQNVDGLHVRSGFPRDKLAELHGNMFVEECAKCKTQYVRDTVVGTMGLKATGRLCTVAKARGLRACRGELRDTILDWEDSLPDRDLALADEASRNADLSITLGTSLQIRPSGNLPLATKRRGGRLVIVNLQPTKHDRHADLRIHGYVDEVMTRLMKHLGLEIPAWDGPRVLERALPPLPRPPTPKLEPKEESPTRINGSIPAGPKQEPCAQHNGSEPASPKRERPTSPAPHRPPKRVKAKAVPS
The target of experiment [2] is T3, Sirt1 (Homo sapiens, UniProt Q96EB6).
T3 sequence (Q96EB6 1-747): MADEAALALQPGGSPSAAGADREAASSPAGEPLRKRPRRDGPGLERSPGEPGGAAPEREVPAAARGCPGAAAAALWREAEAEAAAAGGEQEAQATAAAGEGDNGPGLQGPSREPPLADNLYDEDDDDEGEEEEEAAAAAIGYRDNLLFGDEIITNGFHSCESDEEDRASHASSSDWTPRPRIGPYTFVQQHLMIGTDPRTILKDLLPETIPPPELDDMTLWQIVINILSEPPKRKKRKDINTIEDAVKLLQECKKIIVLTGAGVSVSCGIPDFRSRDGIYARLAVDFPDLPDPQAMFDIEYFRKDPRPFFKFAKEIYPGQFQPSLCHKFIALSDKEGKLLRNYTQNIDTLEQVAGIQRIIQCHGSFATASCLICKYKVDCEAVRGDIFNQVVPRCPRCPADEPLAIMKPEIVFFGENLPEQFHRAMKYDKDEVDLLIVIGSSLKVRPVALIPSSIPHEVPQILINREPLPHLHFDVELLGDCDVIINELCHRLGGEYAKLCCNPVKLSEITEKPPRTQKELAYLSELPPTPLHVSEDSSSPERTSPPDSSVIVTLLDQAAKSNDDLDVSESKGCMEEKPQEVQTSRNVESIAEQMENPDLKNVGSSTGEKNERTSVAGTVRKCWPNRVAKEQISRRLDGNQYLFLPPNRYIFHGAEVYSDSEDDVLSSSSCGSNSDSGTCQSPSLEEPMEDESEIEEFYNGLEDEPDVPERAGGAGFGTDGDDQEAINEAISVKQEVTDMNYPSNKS
The experiment is described as follows: Sirt1 deacetylation Activity Assay Kit. Conditions: time course, Fig. 3.

In experiment [3] the target is T4, Sirt2 (Homo sapiens, UniProt Q8IXJ6).
T4 sequence (Q8IXJ6 1-389): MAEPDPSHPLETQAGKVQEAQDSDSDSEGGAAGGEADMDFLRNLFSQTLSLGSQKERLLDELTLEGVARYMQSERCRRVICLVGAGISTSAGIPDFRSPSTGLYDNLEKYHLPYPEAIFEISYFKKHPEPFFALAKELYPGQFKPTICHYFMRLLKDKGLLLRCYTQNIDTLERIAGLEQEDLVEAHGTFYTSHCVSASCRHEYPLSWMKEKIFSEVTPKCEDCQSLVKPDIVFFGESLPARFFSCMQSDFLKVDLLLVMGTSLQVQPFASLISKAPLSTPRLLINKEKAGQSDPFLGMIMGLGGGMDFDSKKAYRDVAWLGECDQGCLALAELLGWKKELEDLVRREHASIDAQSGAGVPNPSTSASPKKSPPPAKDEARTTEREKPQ
Description: Sirt2 deacetylation Activity Assay Kit. Conditions: time course, Fig. 3.

The target in experiment [4] is T5, Sirt3 (Homo sapiens, UniProt Q9NTG7).
T5 sequence (Q9NTG7 1-399): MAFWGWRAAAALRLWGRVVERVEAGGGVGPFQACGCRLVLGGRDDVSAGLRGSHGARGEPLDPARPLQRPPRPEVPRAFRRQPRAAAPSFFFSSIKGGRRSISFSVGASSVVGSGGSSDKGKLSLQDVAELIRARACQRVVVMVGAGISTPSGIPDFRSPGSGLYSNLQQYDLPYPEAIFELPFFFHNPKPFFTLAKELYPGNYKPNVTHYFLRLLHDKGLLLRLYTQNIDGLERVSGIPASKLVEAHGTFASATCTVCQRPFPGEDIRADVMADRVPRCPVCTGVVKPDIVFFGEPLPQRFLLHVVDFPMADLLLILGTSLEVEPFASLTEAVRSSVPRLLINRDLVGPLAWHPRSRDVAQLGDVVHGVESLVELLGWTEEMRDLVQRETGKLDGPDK
The experiment is described as follows: Sirt3 deacetylation Activity Assay Kit. Conditions: time course, Fig. 3.

The subject of the next experiment is BV2 cells. The experiment is described as follows: LPS-induced inflammatory gene mRNA expression. The conditions noted are these: 30 μM pretreatment 30 minutes, 100 ng/mL LPS 6 hours.
For experiment [5], the target named is T2, Sirt6. The experiment is described as follows: Sirt6-dependent peptide deacetylation, Fluor de Lys. The conditions noted are these: Fig. 3A.
Experiment [6] has as its target T3, Sirt1. The conditions noted are these: cited from earlier work.
For experiment [7], the target named is T4, Sirt2. Conditions: cited from earlier work.
For experiment [8], the target named is T5, Sirt3. The conditions noted are these: cited from earlier work.

Turning to `CN(C)CCN1CCN(c2ncccc2C2Nc3ccccc3-n3cccc32)CC1` (stereo not drawn) [Compound 38, 2-(4-(3-(4,5-Dihydropyrrolo[1,2-a]quinoxalin-4-yl)pyridin-2-yl)piperazin-1-yl)-N,N-dimethylethan-1-amine], the “effect on Sirt5 desuccinylation activity” value on Sirt5 is recorded as “no significant effects”. The “acetylation of H3K9 in the nucleosome test” value at Sirt6 [1] is “significantly decreased”. Also, the “effect on Sirt1 deacetylation activity” value at Sirt1 [2] is recorded as “no significant effects”. Further, at Sirt2 [3], the “effect on Sirt2 deacetylation activity” value is listed as “no significant effects”. In addition, the “effect on Sirt3 deacetylation activity” value on Sirt3 [4] is listed as “no significant effects”. Moreover, in the experiment with BV2 cells, the ICAM-1 induction entry was “slight inhibition”, the “LPS-induced expression of IL-1β” value is listed as “strongly inhibited”, the “LPS-induced expression of IL-6” value is on record as “strongly inhibited” and the “LPS-induced expression of MCP-1” value is listed as “strongly inhibited”. The “LPS-induced expression of TNFα” value with BV2 cells is listed as “strongly inhibited”. Further, the “effect on Sirt6 activity (time course)” value at Sirt6 [5] is “specifically promoted”.
Turning to `c1cncc(C2Nc3ccccc3-n3cccc32)c1` (stereo not drawn) [UBCS039, reference compound], the “effect on basal Sirt1 deacetylation activity” value at Sirt1 [6] was “no obvious effects”. Moreover, at Sirt2 [7], the “effect on basal Sirt2 deacetylation activity” value is “no obvious effects”. Moreover, at Sirt3 [8], the “effect on basal Sirt3 deacetylation activity” value is listed as “no obvious effects”. For the same molecule, in the experiment on BV2 cells, the “LPS-induced expression of IL-1β” value was “strongly inhibited”, the “LPS-induced expression of IL-6” value is given as “strongly inhibited”, the “LPS-induced expression of MCP-1” value is “strongly inhibited” and the “LPS-induced expression of TNFα” value was “strongly inhibited”.
